Literature values as cited in patent US11628185B2, “Stabilized active oxygen-generating antiseptic compositions, irrigation solutions, and articles” (priority 2021, dated 2023).

Legend:
[1] = system: post-operative infection
[2] = system: osteoblasts, fibroblasts, and myoblasts
[3] = all tested concentrations, even dilute 0.35%; used for more than 1 minute
[4] = topical application prior to wound closure

Substance: povidone-iodine
- effect of lavage on post-operative infection risk ([1]; Mayo Clinic case series, more than 10,000 THAs and TKAs): no risk reduction effect
- post-operative infection rates versus non-povidone-iodine lavage ([1]; meta-analysis March 2020, seven studies, 31,213 TJA cases): no differences
- effect on cell migration and survival [2]: inhibiting cell migration and survival
- chondrotoxic effect [3]: pronounced chondrotoxic effect
- serum iodine level [4]: significant increases
